Literature values as cited in patent US9474524B2, “Packaged antimicrobial medical device having improved shelf life and method of preparing same” (Ethicon, Inc., priority 2002, dated 2016).

Test system: S. aureus
Conditions: suitable growth medium; Bhargava, H. et al, American Journal of Infection Control, June 1996

Question: Which “minimum inhibitory concentration (MIC) against S. aureus” value does the source give for `Oc1cc(Cl)ccc1Oc1ccc(Cl)cc1Cl` [2,4,4′-trichloro-2′-hydroxydiphenyl ether] here?
Answer: Its value is 0.01 ppm.
